Measurements taken from patent publication US20180250232A1, “PROCESS FOR PREPARING SPRAY DRIED SOLID DISPERSIONS OF (S)-N-(3-(6-ISOPROPOXYPYRIDIN-3-YL)-1H-INDAZOL-5-YL)-1-(2-(4-(4-(1-METHYL-1H-1,2,4-TRIAZOL-3-YL)PHENYL)-3,6-DIHYDROPYRIDIN-1(2H)-YL)-2-OXOETHYL)-3-(METHYLTHIO)PYRROLIDINE-3-CARBOXAMIDE FOR PHARMACEUTICAL PREPARATIONS” (Merck Sharp & Dohme Corp., priority 2015, published 2018).

Test: polymorph studies / competition slurry experiments
Type: physicochemical
Protocol: Preliminary polymorph screening for (S)—N-(3-(6-isopropoxypyridin-3-yl)-1H-indazol-5-yl)-1-(2-(4-(4-(1-methyl-1H-1,2,4-triazol-3-yl)phenyl)-3,6-dihydropyridin-1(2H)-yl)-2-oxoethyl)-3-(methylthio)pyrrolidine-3-carboxamide were conducted by solvent-mediated slurry experiments in 10 different solvents or solvent mixtures using the amorphous compound as the starting material.

With `CS[C@@]1(C(=O)Nc2ccc3[nH]nc(-c4ccc(OC(C)C)nc4)c3c2)CCN(CC(=O)N2CC=C(c3ccc(-c4ncn(C)n4)cc3)CC2)C1` [hydrate form 2, (S)—N-(3-(6-isopropoxypyridin-3-yl)-1H-indazol-5-yl)-1-(2-(4-(4-(1-methyl-1H-1,2,4-triazol-3-yl)phenyl)-3,6-dihydropyridin-1(2H)-yl)-2-oxoethyl)-3-(methylthio)pyrrolidine-3-carboxamide crystalline free base hydrate form 2] as the compound, how does the “more stable form in competition slurry experiments” value (hydrate form 1 and 2 as seeds in H2O/methanol mixture (H2O activity of 0.5), room temperature and 4° C.) read?
Its value is “more stable form in both experiments”.

What about the “stability of crystalline form (polymorph studies)” value (room temperature) of the same compound?
Its value is “most stable crystalline form at room temperature”.
